Values joined by “and” are separate entries in the source; they are usually repeats but may differ in a detail not shown here. Equal values may be shown once.
Experiments:
Assay in all cases: radiometric filter-binding kinase assay, Kinaseprofiler
[1] = target: CDC42BPA (human) (UniProt Q5VT25); conditions: compound 1.0 µM; ATP 45 µM
[2] = target: CDK1 CCNB1 (human) (UniProt P06493+P14635); conditions: compound 1.0 µM; ATP 45 µM
[3] = target: CDK9 CCNT1 (human) (UniProt P50750+O60563); conditions: compound 1.0 µM; ATP 45 µM
[4] = target: CSK (human) (UniProt P41240); conditions: compound 1.0 µM; ATP 15 µM
[5] = target: DAPK3 (human) (UniProt O43293); conditions: compound 1.0 µM; ATP 15 µM
[6] = target: DMPK (human) (UniProt Q09013); conditions: compound 1.0 µM; ATP 10 µM
[7] = system: EGFR (human), P00533 [L858R]; conditions: compound 1.0 µM; ATP 10 µM
[8] = target: EPHA5 (human) (UniProt P54756); conditions: compound 1.0 µM; ATP 10 µM
[9] = target: EPHA7 (human) (UniProt Q15375); conditions: compound 1.0 µM; ATP 90 µM
[10] = target: ERBB4 (human) (UniProt Q15303); conditions: compound 1.0 µM; ATP 15 µM
[11] = target: FES (human) (UniProt P07332); conditions: compound 1.0 µM; ATP 45 µM
[12] = target: FGFR2 (human) (UniProt P21802); conditions: compound 1.0 µM; ATP 90 µM
[13] = system: GSK3B (human), P49841 [H350L]; conditions: compound 1.0 µM; ATP 15 µM
[14] = target: HIPK1 (human) (UniProt Q86Z02); conditions: compound 1.0 µM; ATP 45 µM
[15] = target: IGF1R (human) (UniProt P08069); conditions: compound 1.0 µM; ATP 200 µM
[16] = target: INSR (human) (UniProt P06213); conditions: compound 1.0 µM; ATP 200 µM
[17] = target: ITK (human) (UniProt Q08881); conditions: compound 1.0 µM; ATP 200 µM
[18] = target: MAP3K7 (human) (UniProt O43318); conditions: compound 1.0 µM; ATP 45 µM
[19] = system: MAPK9 (human), P45984 [S51N]; conditions: compound 1.0 µM; ATP 45 µM
[20] = system: MARK1 (human), Q9P0L2 [V16E/T20S]; conditions: compound 1.0 µM; ATP 10 µM
[21] = target: MELK (human) (UniProt Q14680); conditions: compound 1.0 µM; ATP 45 µM
[22] = target: MINK1 (human) (UniProt Q8N4C8); conditions: compound 1.0 µM; ATP 185 µM
[23] = target: MYLK (human) (UniProt Q15746); conditions: compound 1.0 µM; ATP 70 µM
[24] = target: NEK3 (human) (UniProt P51956); conditions: compound 1.0 µM; ATP 120 µM
[25] = target: PAK4 (human) (UniProt O96013); conditions: compound 1.0 µM; ATP 10 µM
[26] = target: PRKCA (human) (UniProt P17252); conditions: compound 1.0 µM; ATP 45 µM
[27] = target: PRKCE (human) (UniProt Q02156); conditions: compound 1.0 µM; ATP 45 µM
[28] = target: PRKCZ (human) (UniProt Q05513); conditions: compound 1.0 µM; ATP 15 µM
[29] = target: PRKG1 (human) (UniProt Q13976); conditions: compound 1.0 µM; ATP 90 µM
[30] = target: PTK6 (human) (UniProt Q13882); conditions: compound 1.0 µM; ATP 15 µM
[31] = system: RAF1 (human), P04049 [Y340D/Y341D]; conditions: compound 1.0 µM; ATP 45 µM
[32] = target: RIPK2 (human) (UniProt O43353); conditions: compound 1.0 µM; ATP 120 µM
[33] = system: ROS1 (human), P08922 [V2262A]; conditions: compound 1.0 µM; ATP 200 µM
[34] = system: SGK2 (human), Q9HBY8 [S416D]; conditions: compound 1.0 µM; ATP 15 µM
[35] = target: SIK1 (human) (UniProt P57059); conditions: compound 1.0 µM; ATP 45 µM
[36] = target: SRPK2 (human) (UniProt P78362); conditions: compound 1.0 µM; ATP 10 µM
[37] = target: STK10 (human) (UniProt O94804); conditions: compound 1.0 µM; ATP 200 µM
[38] = target: STK4 (human) (UniProt Q13043); conditions: compound 1.0 µM; ATP 90 µM
[39] = target: WNK3 (human) (UniProt Q9BYP7); conditions: compound 1.0 µM; ATP 200 µM

PRKG1 (human), sequence (Q13976 whole entry, looked up): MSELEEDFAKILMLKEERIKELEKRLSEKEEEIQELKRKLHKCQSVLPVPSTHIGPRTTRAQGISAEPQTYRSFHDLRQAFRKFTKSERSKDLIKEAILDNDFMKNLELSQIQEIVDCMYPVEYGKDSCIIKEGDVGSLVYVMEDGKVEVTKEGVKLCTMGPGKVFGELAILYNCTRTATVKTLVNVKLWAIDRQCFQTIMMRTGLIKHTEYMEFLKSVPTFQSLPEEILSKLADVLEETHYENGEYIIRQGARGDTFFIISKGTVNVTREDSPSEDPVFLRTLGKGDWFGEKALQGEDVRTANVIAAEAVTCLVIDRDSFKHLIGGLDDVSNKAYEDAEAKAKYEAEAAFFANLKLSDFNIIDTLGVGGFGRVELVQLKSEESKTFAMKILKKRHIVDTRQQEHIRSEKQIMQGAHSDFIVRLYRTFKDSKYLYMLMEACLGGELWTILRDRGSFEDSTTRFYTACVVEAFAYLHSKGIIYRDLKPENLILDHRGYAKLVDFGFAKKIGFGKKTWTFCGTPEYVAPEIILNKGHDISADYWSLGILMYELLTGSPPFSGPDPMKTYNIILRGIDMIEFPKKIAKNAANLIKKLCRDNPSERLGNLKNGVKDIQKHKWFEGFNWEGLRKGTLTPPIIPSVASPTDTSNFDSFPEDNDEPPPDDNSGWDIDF
PTK6 (human), sequence (Q13882 whole entry, looked up): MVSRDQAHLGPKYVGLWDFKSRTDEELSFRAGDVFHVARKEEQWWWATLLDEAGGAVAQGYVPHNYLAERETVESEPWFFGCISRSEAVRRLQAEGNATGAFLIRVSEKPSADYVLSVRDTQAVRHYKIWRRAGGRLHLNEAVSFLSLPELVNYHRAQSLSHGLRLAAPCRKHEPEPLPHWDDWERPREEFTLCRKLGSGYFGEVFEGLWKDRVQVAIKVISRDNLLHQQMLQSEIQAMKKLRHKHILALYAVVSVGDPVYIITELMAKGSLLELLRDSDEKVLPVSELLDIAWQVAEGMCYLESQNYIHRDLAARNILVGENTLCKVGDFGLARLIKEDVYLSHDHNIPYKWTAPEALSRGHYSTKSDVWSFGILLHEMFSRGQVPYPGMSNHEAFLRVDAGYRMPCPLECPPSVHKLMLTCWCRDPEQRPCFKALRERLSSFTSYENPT
ITK (human), sequence (Q08881 whole entry, looked up): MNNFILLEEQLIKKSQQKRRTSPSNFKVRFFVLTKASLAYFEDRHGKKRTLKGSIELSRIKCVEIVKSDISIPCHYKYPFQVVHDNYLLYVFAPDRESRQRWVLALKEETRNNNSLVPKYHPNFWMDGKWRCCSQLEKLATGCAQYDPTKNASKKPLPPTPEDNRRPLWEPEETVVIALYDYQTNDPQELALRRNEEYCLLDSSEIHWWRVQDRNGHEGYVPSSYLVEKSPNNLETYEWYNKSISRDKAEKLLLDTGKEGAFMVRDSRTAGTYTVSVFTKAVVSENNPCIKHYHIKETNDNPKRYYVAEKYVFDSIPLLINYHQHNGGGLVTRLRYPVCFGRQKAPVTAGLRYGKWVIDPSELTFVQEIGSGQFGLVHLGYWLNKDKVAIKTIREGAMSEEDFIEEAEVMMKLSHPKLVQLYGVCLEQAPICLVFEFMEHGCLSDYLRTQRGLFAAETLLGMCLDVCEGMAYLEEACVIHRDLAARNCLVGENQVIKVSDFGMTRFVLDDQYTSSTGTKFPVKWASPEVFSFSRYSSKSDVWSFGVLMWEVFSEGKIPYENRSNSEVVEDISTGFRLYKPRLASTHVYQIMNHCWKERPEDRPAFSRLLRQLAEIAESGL
SIK1 (human), sequence (P57059 whole entry, looked up): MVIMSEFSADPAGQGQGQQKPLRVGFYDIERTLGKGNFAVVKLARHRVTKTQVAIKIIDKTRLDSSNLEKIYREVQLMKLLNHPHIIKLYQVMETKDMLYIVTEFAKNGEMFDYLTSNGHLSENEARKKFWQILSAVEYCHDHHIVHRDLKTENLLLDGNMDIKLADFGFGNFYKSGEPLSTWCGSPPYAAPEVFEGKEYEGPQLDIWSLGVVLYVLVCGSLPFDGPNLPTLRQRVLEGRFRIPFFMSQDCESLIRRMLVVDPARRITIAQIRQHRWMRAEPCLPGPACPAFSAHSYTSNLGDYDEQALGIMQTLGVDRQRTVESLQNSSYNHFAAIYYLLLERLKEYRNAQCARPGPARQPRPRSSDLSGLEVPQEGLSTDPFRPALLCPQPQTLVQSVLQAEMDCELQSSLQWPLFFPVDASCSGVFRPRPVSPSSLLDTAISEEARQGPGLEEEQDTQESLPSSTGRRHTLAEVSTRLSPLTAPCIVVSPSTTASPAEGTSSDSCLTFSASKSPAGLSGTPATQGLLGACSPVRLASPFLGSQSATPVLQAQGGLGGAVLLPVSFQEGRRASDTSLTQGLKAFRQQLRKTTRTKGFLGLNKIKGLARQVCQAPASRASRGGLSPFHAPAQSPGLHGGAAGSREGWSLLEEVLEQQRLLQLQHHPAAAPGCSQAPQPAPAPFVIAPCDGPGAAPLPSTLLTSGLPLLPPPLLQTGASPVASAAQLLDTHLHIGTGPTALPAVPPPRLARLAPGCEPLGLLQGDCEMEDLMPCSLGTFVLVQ
STK10 (human), sequence (O94804 whole entry, looked up): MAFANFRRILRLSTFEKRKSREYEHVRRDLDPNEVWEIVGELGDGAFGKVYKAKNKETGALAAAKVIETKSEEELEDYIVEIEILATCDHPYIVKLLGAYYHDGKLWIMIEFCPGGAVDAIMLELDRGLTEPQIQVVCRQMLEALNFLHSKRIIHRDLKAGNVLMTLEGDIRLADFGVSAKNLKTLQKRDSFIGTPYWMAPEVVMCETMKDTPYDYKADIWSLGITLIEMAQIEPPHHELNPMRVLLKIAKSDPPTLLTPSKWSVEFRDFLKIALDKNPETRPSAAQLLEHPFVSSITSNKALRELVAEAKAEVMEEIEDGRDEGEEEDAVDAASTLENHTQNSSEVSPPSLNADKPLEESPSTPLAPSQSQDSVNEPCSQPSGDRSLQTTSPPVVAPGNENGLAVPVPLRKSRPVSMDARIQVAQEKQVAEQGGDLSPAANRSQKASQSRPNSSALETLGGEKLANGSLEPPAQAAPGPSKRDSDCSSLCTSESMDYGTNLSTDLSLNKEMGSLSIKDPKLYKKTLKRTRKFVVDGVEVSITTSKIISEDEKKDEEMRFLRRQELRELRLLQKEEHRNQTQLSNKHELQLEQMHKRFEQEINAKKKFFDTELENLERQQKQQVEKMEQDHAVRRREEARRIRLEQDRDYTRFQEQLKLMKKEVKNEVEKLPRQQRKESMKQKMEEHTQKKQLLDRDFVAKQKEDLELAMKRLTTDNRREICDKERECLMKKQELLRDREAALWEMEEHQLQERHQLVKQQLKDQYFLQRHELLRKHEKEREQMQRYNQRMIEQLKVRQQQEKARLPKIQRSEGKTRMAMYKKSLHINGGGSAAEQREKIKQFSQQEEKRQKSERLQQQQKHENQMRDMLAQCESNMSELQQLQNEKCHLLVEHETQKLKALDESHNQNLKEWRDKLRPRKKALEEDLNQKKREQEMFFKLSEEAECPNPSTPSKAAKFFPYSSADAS
MARK1 (human), Q9P0L2 [V16E/T20S], sequence (Q9P0L2 whole entry, looked up, stated change not applied): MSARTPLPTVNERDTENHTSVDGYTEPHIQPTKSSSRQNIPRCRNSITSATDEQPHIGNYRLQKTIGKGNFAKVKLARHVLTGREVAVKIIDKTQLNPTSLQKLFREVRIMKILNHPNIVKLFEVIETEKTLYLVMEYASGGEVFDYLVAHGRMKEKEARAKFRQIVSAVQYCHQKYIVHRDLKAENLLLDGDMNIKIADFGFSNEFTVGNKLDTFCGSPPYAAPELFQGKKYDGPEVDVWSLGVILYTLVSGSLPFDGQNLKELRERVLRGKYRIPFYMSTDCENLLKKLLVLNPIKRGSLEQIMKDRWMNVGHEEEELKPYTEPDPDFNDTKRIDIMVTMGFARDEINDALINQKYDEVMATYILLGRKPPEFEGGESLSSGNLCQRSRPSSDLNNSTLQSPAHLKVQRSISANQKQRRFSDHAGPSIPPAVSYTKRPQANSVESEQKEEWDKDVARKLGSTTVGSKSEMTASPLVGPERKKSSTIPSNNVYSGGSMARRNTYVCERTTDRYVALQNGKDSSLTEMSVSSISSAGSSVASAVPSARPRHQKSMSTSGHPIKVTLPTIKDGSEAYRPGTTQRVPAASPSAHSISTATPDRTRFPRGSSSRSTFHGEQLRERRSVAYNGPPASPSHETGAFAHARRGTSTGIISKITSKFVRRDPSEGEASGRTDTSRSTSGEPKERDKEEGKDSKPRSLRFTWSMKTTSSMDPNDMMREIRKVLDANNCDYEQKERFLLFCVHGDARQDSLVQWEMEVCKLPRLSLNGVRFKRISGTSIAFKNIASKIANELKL
STK4 (human), sequence (Q13043 whole entry, looked up): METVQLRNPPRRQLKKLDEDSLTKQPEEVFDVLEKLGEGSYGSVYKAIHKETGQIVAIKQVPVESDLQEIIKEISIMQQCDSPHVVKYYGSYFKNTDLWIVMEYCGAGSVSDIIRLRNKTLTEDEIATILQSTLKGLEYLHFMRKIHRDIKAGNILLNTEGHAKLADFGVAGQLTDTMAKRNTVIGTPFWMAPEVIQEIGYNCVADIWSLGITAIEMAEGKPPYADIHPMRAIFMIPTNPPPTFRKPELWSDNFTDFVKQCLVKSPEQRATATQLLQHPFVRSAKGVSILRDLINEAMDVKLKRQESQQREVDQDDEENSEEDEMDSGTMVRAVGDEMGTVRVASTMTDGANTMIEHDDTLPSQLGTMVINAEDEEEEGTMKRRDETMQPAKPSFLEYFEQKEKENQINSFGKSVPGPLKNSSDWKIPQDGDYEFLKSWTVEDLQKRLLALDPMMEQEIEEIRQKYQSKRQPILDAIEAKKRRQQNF

For `CN(C)S(=O)(=O)Nc1ccc2ccc3ncc(-c4cnn(C)c4)cc3c(=O)c2c1`, the residual activity [1] was 107%, the residual activity [2] was 66% and the residual activity [3] was 107%. It also gave a residual activity [4] of 85%, a residual activity [5] of 87% and a residual activity [6] of 101%. The residual activity [7] was 41%, the residual activity [8] was 102% and the residual activity [9] was 101%. The residual activity [10] was 84%, the residual activity [11] was 113% and the residual activity [12] was 12%. It also gave a residual activity [13] of 110%, a residual activity [14] of 116% and a residual activity [15] of 101%. For the same molecule, the residual activity [16] was 109%, the residual activity [17] was 18% and the residual activity [18] was 75%. For the same molecule, the residual activity [19] was 88%, the residual activity [20] was 62% and the residual activity [21] was 38%. It also gave a residual activity [22] of 105%, a residual activity [23] of 61% and a residual activity [24] of 104%. For the same molecule, the residual activity [25] was 94%, the residual activity [26] was 105% and the residual activity [27] was 103%. For the same molecule, the residual activity [28] was 95%, the residual activity [29] was 6% and -14% and the residual activity [30] was 103%. For the same molecule, the residual activity [31] was 72%, the residual activity [32] was 35% and the residual activity [33] was 71%. The residual activity [34] was 114%, the residual activity [35] was 87% and the residual activity [36] was 104%. It also gave a residual activity [37] of 78%, a residual activity [38] of 80% and a residual activity [39] of 78%.
